Measured values reported in patent US5554542A, “Immunoassay for isothiazolones” (Rohm and Haas Company, priority 1993, dated 1996).

Test system: antibodies in mouse serum
Assay: Competitive inhibition ELISA (CIEIA) screening of mouse sera for isothiazolone antibodies
Format: binding, BALB/c mice
Conditions: for % Inhibition: inhibitor final 1 ppm, b98 says 10^-4 M; for Reactivity of serum antibodies toward inhibitor: serum of mouse 1E, immunized with 573-THY
Description: Blood samples were taken from the mice immunized in the above example. The sera were separated from the red blood cells by centrifugation. The sera were then screened for activity using competitive inhibition ELISA (CIEIA). Ninety-six well polystyrene EIA ([…]) plates were coated with 100 μl of 651 conjugated to BSA (651-BSA), 651 conjugated to THY (651-THY), 573 conjugated to BSA (573-BSA), or 573 conjugated to THY (573-THY) for at least two hours at room temperature or 16 hours at 4° C. Unbound material was washed from the wells with five washes of PBS-T. The wells then received 50 μl of buffer alone (PBS-T) or inhibitors, either 651 or 573, each diluted to 2 ppm in buffer. The wells then received 50 μl of mouse serum, so that each serum was reacted with either buffer, 651 or 573 (inhibitors). […] The wells were incubated for 30-60 minutes at room temperature. They were then washed five times with PBS-T to remove unbound material and each well then received 100 μl of a 1 μg/ml solution of biotinylated horse anti-mouse IgG (Vector Laboratories, Burlingame, Calif.), and the assay continued as described for the ELISA, supra.
If the antibodies in a serum were reactive with one or both of the inhibitors in solution in the wells, the antibody molecules, or a percentage of the antibody molecules, would bind to the inhibitors, and would therefore form an antibody-inhibitor complex which would stay in solution and be removed from the plate during the washing step. In such a case, the binding of the antibody to the inhibitor would reduce the number of antibody molecules available to bind to the coating antigen, 651-BSA. Because fewer antibody molecules are attached to the 651-BSA, there is a reduction in the number of biotinylated horse anti-mouse IgG molecules bound, resulting in fewer molecules of avidin-peroxidase complex being bound, resulting in reduced hydrolysis of the substrate, leading ultimately to lower absorbances. In all cases, the inhibitor concentration was 10^-4 M.

[1] = mouse 1D serum, immunogen 573-BSA, coating conjugate 573-THY
[2] = mouse 1D serum, immunogen 573-BSA, coating conjugate 651-THY
[3] = mouse 1E serum, immunogen 573-THY, coating conjugate 573-BSA
[4] = mouse 1E serum, immunogen 573-THY, coating conjugate 651-BSA
[5] = mouse 2D serum, immunogen 573-BSA, coating conjugate 651-THY
[6] = mouse 2E serum, immunogen 573-THY, coating conjugate 573-BSA
[7] = mouse 2E serum, immunogen 573-THY, coating conjugate 651-BSA

**Q.** What does the source list for `Cn1sccc1=O` [compound 573, 2-methyl-3-isothiazolone]?
**A.** % Inhibition [1]: 12%; % Inhibition [2]: 0%; % Inhibition [3]: 21%; % Inhibition [4]: 28%; % Inhibition [5]: 0%; % Inhibition [6]: 10%; % Inhibition [7]: 12%; Reactivity of serum antibodies toward inhibitor: reactive

**Q.** How did the “% Inhibition” value [1] turn out when `Cn1sc(Cl)cc1=O` [compound 651, 5-chloro-2-methyl-3-isothiazolone] was run?
**A.** The value was 0%.

**Q.** And the “% Inhibition” value [2]?
**A.** Its value is 10%.

**Q.** What about the “% Inhibition” value [3] of the same molecule?
**A.** The value was 44%.

**Q.** What about the “% Inhibition” value [4] of the same molecule?
**A.** The value was 34%.

**Q.** What about the “% Inhibition” value [5] of the same molecule?
**A.** The value was 12%.

**Q.** What about the “% Inhibition” value [6] of the same molecule?
**A.** Its value is 12%.

**Q.** And the “% Inhibition” value [7]?
**A.** Its value is 7%.

**Q.** And the “Reactivity of serum antibodies toward inhibitor” value?
**A.** Its value is “reactive”.
